Laboratory results: patent US11185527B2, “Methods and compositions relating to steroid hormone receptor-dependent cancers” (Wayne State University, priority 2017, dated 2021)

Experiments:
[1] = tested on: 22Rv1 cells; assay: Cell monolayer growth assay (MTT); format: cell-based, human; settings: enzalutamide up to 20 uM
Experimental: Twenty four hours after plating the 22Rv1 cells, they were treated with the indicated concentrations of KCI807 (FIG. 4C) or with the indicated concentrations of enzalutamide (ENZ) (FIG. 4D).
Twenty four hours after plating the cells, they were treated with the indicated concentrations of the compound.
FIG. 16D is a graph showing the effect of 5′-Fluoro-5,3′-Dihydroxyflavone at various concentrations on growth of 22Rv1 cells.
(§1) Cells were trypsinized and 3000-4000 cells/well were seeded in 96-well plates coated with poly-D-lysine. The cells were seeded in phenol red-free medium supplemented with 10% FBS, 100 units/ml penicillin, 100 μg/ml streptomycin, 2 mM L-glutamine mixture and sodium pyruvate (1 mM) for LNCaP cells and phenol red-free medium supplemented with 10% FBS, 100 units/ml penicillin, 100 μg/ml streptomycin and 2 mM L-glutamine mixture for VCaP, 22Rv1, DU145, HeLa, HEK293 and H1650 cells. The cells were grown at 37° C. in 5% CO2. Twenty four hours after seeding in the 96-well plates, the cells were treated with the indicated concentration of KCI807 or DMSO (vehicle). The cells were re-treated on Day 3 by removing half the volume of medium and replacing it with fresh treated medium. Cell viability was determined using the MTT assay from day zero until day five. MTT (10 μL, 5 mg/mL) was added to each well and incubated for 2h at 37° C. The formazan crystal sediments were dissolved in 100 μL of DMSO, and the absorbance at 570 nm was measured using the BioTek Synergy 2 Microplate Reader (BioTek, Winooski, Vt.). The assay was conducted in sextuplicate wells and values were normalized to day zero.

[2] = tested on: LNCaP cells; assay: Cell monolayer growth assay (MTT); format: cell-based; settings: enzalutamide up to 20 uM
Experimental: as §1, with “Twenty four hours after plating the LNCaP cells, they were treated with the indicated concentrations of KCI807 (FIG. 4E) or with the indicated concentrations of enzalutamide (ENZ) (FIG. 4F). […] Cells” for “Cells”

[3] = tested on: VCaP cells; assay: Cell monolayer growth assay (MTT); format: cell-based
Experimental: as §1, with “Twenty four hours after plating the VCaP cells, they were treated with the indicated concentrations of KCI807 (FIG. 4G) or with the indicated concentrations of enzalutamide (ENZ) (FIG. 4H). […] Cells” for “Cells”

[4] = tested on: PDX-PR011 tumor xenograft; assay: PDX-PR011 patient-derived CRPC tumor xenograft in male SCID mice, tumor growth; format: in vivo, mouse; settings: treatment from Day 1; KCI807 IP as for 22Rv1; enzalutamide oral 50 mg/Kg daily
Experimental: FIG. 5B is a graph showing results obtained when PDX-PR011 tumor xenografts were implanted sc into male SCID mice in both flanks. The vehicle control and KCI807 were administered as described for FIG. 5A with the exception that treatment was begun on Day 1 after tumor implantation. Tumor volumes were monitored as described herein.
FIG. 14 is a graph showing results obtained when PDX-PR011 tumor xenografts were implanted sc into male SCID mice in both flanks. […] Treatment was begun on Day 1 after tumor implantation.

Structure (SMILES)	growth inhibition of 22Rv1 cells [1]	growth inhibition of LNCaP cells [2]	growth inhibition of VCaP cells [3]	tumor growth inhibition, PDX-PR011 xenograft [4]
O=c1cc(-c2cc(O)cc(F)c2)oc2cccc(O)c12 [5′-fluoro-5,3′-dihydroxyflavone]	inhibited growth	inhibited growth	inhibited growth	–
O=c1cc(-c2cccc(O)c2)oc2cccc(O)c12 [KCI807, 5,3′-dihydroxyflavone]	completely inhibited cell growth	completely inhibited cell growth	most sensitive	significantly inhibited
CNC(=O)c1ccc(N2C(=S)N(c3ccc(C#N)c(C(F)(F)F)c3)C(=O)C2(C)C)cc1F [enzalutamide]	only showed partial effects	only showed partial effects	most sensitive	not inhibited
